Source: PubChem BioAssay (NCI)
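Results reflect a 48-hour exposure of cells in 96-well plates to compound at five concentrations. TGI is the concentration that stops growth completely.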

Experiments:
Assay in all cases: NCI-60 cell line screen, 48 h
[1] = test system: RXF 393 renal
[2] = test system: TK-10 renal
[3] = test system: OVCAR-5 ovarian
[4] = test system: OVCAR-4 ovarian
[5] = test system: SW-620 colon
[6] = test system: HCT-15 colon
[7] = test system: NCI/ADR-RES ovarian
[8] = test system: IGROV1 ovarian
[9] = test system: K-562 leukemia
[10] = test system: UO-31 renal
[11] = test system: SK-MEL-5 melanoma
[12] = test system: KM12 colon
[13] = test system: NCI-H23 lung
[14] = test system: SK-OV-3 ovarian

`O=c1[nH]c(=S)[nH]n1C(=S)n1[nH]c(=S)[nH]c1=O` gave a TGI [1] of over 100 µM, a TGI [2] of over 100 µM and a TGI [3] of over 100 µM. It also gave a TGI [4] of over 100 µM, a TGI [5] of over 100 µM and a TGI [6] of over 100 µM. It also gave a TGI [7] of over 100 µM, a TGI [8] of over 100 µM and a TGI [9] of over 100 µM. The TGI [10] was over 100 µM, the TGI [11] was over 100 µM and the TGI [12] was over 100 µM. It also gave a TGI [13] of over 100 µM.
With `[N-]=[NH+]CC(=O)OC(COCc1ccccc1)COCc1ccccc1` the TGI [1] was over 100 µM, the TGI [2] was over 100 µM and the TGI [3] was over 100 µM. It also gave a TGI [4] of over 100 µM, a TGI [5] of over 100 µM and a TGI [6] of over 100 µM. For the same molecule, the TGI [14] was over 100 µM, the TGI [8] was over 100 µM and the TGI [9] was over 100 µM. For the same molecule, the TGI [10] was 63 µM, the TGI [11] was over 100 µM and the TGI [12] was 86.2 µM. It also gave a TGI [13] of over 100 µM.
For `CN(C)C(=O)Nc1cc2c3c(c1)CCCN3CCC2`, the TGI [1] was over 10 µM, the TGI [2] was over 10 µM and the TGI [4] was over 10 µM. The TGI [5] was over 10 µM, the TGI [6] was over 10 µM and the TGI [14] was over 10 µM. For the same molecule, the TGI [7] was over 10 µM, the TGI [8] was over 10 µM and the TGI [9] was over 10 µM. It also gave a TGI [10] of over 10 µM, a TGI [11] of over 10 µM and a TGI [12] of over 10 µM. The TGI [13] was over 10 µM.
Work on `O=c1cc(CBr)c2ccc(O)cc2o1` yielded a TGI [1] of over 100 µM, a TGI [2] of over 100 µM and a TGI [3] of over 100 µM. For the same molecule, the TGI [5] was over 100 µM, the TGI [6] was over 100 µM and the TGI [14] was over 100 µM. It also gave a TGI [7] of over 100 µM, a TGI [8] of over 100 µM and a TGI [9] of over 100 µM. It also gave a TGI [10] of over 100 µM, a TGI [11] of over 100 µM and a TGI [12] of over 100 µM. For the same molecule, the TGI [13] was over 100 µM.
For `CC/C=C/C(=O)CC(O)(C(F)(F)F)C(F)(F)F`, the TGI [1] was over 100 µM, the TGI [2] was over 100 µM and the TGI [3] was over 100 µM. The TGI [4] was over 100 µM, the TGI [5] was over 100 µM and the TGI [6] was over 100 µM. For the same molecule, the TGI [14] was over 100 µM, the TGI [7] was over 100 µM and the TGI [8] was over 100 µM. It also gave a TGI [10] of over 100 µM, a TGI [11] of over 100 µM and a TGI [12] of over 100 µM. It also gave a TGI [13] of over 100 µM.
`N#Cc1c(Cl)/c(=C/O)c(=O)n2c1nc1ccccc12` gave a TGI [2] of over 100 µM, a TGI [3] of 91.7 µM and a TGI [4] of over 100 µM. The TGI [5] was over 100 µM, the TGI [6] was over 100 µM and the TGI [14] was over 100 µM. The TGI [7] was over 100 µM, the TGI [8] was over 100 µM and the TGI [9] was over 100 µM. It also gave a TGI [10] of over 100 µM, a TGI [11] of over 100 µM and a TGI [12] of over 100 µM. For the same molecule, the TGI [13] was over 100 µM.
`O=C(C1C(c2ccccc2)N1C(c1ccccc1)c1ccccc1)C1C(c2ccccc2)N1C(c1ccccc1)c1ccccc1` (stereo not given) showed a TGI [2] of 60.9 µM, a TGI [3] of 81.2 µM and a TGI [4] of over 100 µM. It also gave a TGI [5] of 37.2 µM, a TGI [14] of over 100 µM and a TGI [7] of over 100 µM. The TGI [9] was 20.3 µM, the TGI [10] was 38.4 µM and the TGI [11] was 49.8 µM. It also gave a TGI [12] of 72.8 µM.
Work on `COc1cc(Nc2cnc3cc(F)c(F)cc3n2)cc(OC)c1` yielded a TGI [1] of 51.2 µM, a TGI [2] of over 100 µM and a TGI [3] of over 100 µM. For the same molecule, the TGI [4] was over 100 µM, the TGI [5] was over 100 µM and the TGI [6] was over 100 µM. It also gave a TGI [14] of 79.1 µM, a TGI [7] of over 100 µM and a TGI [8] of over 100 µM. It also gave a TGI [10] of over 100 µM, a TGI [11] of over 100 µM and a TGI [12] of over 100 µM. It also gave a TGI [13] of 91 µM.
For `CSC1=N/C(=C\c2ccco2)C(=O)N1CN1CCCCC1`, the TGI [2] was over 100 µM, the TGI [3] was over 100 µM and the TGI [5] was over 100 µM. It also gave a TGI [6] of over 100 µM, a TGI [14] of over 100 µM and a TGI [7] of over 100 µM. It also gave a TGI [8] of over 100 µM, a TGI [9] of over 100 µM and a TGI [10] of over 100 µM. For the same molecule, the TGI [11] was over 100 µM, the TGI [12] was over 100 µM and the TGI [13] was over 100 µM.
`Cn1c(Nc2ccccc2)c(C=Nc2ccccc2)c(=O)n(C)c1=O` was tested, and the TGI [1] was over 100 µM, the TGI [2] was over 100 µM and the TGI [3] was over 100 µM. The TGI [4] was over 100 µM, the TGI [5] was over 100 µM and the TGI [14] was over 100 µM. For the same molecule, the TGI [7] was over 100 µM, the TGI [8] was over 100 µM and the TGI [9] was over 100 µM. For the same molecule, the TGI [10] was over 100 µM, the TGI [12] was over 100 µM and the TGI [13] was over 100 µM.
For `O=c1oc2ccccc2c(O)c1C(c1ccc(/C=C/c2ccccc2)cc1)c1c(O)c2ccccc2oc1=O`, the TGI [2] was over 100 µM, the TGI [4] was over 100 µM and the TGI [5] was over 100 µM. The TGI [6] was over 100 µM, the TGI [7] was 60.3 µM and the TGI [8] was over 100 µM. The TGI [9] was over 100 µM, the TGI [10] was 41.1 µM and the TGI [11] was 74.4 µM. For the same molecule, the TGI [12] was 64.4 µM and the TGI [13] was over 100 µM.
For `N#Cc1c(Cl)c2ccccc2n2c1nc1ccccc12`, the TGI [1] was 49.3 µM, the TGI [2] was 36.5 µM and the TGI [3] was over 100 µM. It also gave a TGI [4] of 84 µM, a TGI [5] of over 100 µM and a TGI [6] of 33.1 µM. The TGI [14] was over 100 µM, the TGI [7] was 65.6 µM and the TGI [8] was 38.7 µM. It also gave a TGI [9] of over 100 µM, a TGI [10] of 38.2 µM and a TGI [12] of over 100 µM. For the same molecule, the TGI [13] was 53.8 µM.
Molecule `O=C1CCC2CCC1C2` (stereo not given) has a TGI [1] of over 100 µM, a TGI [2] of over 100 µM and a TGI [3] of over 100 µM. For the same molecule, the TGI [4] was over 100 µM, the TGI [6] was over 100 µM and the TGI [14] was over 100 µM. It also gave a TGI [7] of over 100 µM, a TGI [9] of over 100 µM and a TGI [10] of over 100 µM. The TGI [11] was over 100 µM, the TGI [12] was over 100 µM and the TGI [13] was over 100 µM.
`O=C(CCc1ccc(O)cc1)NCCc1cccc(OCc2ccccc2)c1` gave a TGI [1] of over 100 µM, a TGI [2] of 79.5 µM and a TGI [3] of over 100 µM. The TGI [4] was over 100 µM, the TGI [6] was over 100 µM and the TGI [14] was over 100 µM. For the same molecule, the TGI [7] was over 100 µM, the TGI [8] was over 100 µM and the TGI [9] was 65.9 µM. The TGI [10] was 53.9 µM, the TGI [11] was 32.7 µM and the TGI [12] was 83 µM. The TGI [13] was 71.6 µM.
With `NC1=NN(c2ccccc2)C2(O)c3ccncc3C3=NN(c4ccccc4)C(=O)C132` (stereo not given) the TGI [1] was over 100 µM, the TGI [3] was over 100 µM and the TGI [4] was over 100 µM. The TGI [5] was over 100 µM, the TGI [6] was over 100 µM and the TGI [14] was over 100 µM. The TGI [7] was over 100 µM, the TGI [8] was over 100 µM and the TGI [9] was over 100 µM. For the same molecule, the TGI [10] was over 100 µM, the TGI [11] was over 100 µM and the TGI [12] was over 100 µM. For the same molecule, the TGI [13] was over 100 µM.
Molecule `COC(=O)C1=C(\c2ccccc2)c2ccccc2C(=O)N(C2CCCCC2)/C=C\1` has a TGI [2] of over 100 µM, a TGI [3] of over 100 µM and a TGI [4] of over 100 µM. It also gave a TGI [5] of over 100 µM, a TGI [6] of over 100 µM and a TGI [14] of over 100 µM. The TGI [7] was over 100 µM, the TGI [8] was over 100 µM and the TGI [9] was over 100 µM. It also gave a TGI [10] of over 100 µM, a TGI [11] of 24.3 µM and a TGI [12] of 45.8 µM. It also gave a TGI [13] of over 100 µM.
`COc1cc(NCc2ccc3nc(OC)c(OC)nc3c2)cc(OC)c1OC` showed a TGI [1] of over 100 µM, a TGI [3] of over 100 µM and a TGI [4] of over 100 µM. The TGI [5] was over 100 µM, the TGI [6] was over 100 µM and the TGI [14] was over 100 µM. It also gave a TGI [7] of over 100 µM, a TGI [8] of over 100 µM and a TGI [9] of over 100 µM. The TGI [10] was over 100 µM, the TGI [11] was over 100 µM and the TGI [12] was over 100 µM. The TGI [13] was over 100 µM.
With `COc1ccc(C2=C(N)c3c(OC)cccc3C2=O)cc1` the TGI [1] was 31.5 µM, the TGI [3] was over 100 µM and the TGI [4] was over 100 µM. For the same molecule, the TGI [5] was over 100 µM, the TGI [6] was over 100 µM and the TGI [14] was over 100 µM. It also gave a TGI [7] of over 100 µM, a TGI [8] of over 100 µM and a TGI [9] of over 100 µM. It also gave a TGI [10] of over 100 µM, a TGI [12] of over 100 µM and a TGI [13] of over 100 µM.
